In PubChem BioAssay AID1745844 (Carcinogenic Potency Database (CPDB), 2022):
Calls of active or inactive are those of the source. How the calls were made is not given here.

Tested on: rodent lifetime carcinogenesis bioassay, tumor incidence TD50
Experiment: carcinogenic potency in animals, long-term in vivo studies, CPDB compilation (AID 1745844)

O=S(=O)(O)c1ccc(N=Nc2cc(S(=O)(=O)O)c3ccccc3c2O)c2ccccc12
carcinogen call (mouse, strain ASH-CS1, females, in feed, site: liver, lesion: one or several types, types not named, dosed 80 weeks, study length 80 weeks): negative (inactive)
TD50 (mouse, strain ASH-CS1, females, in feed, site: lung, lesion: papillary adenoma, dosed 80 weeks, study length 80 weeks): 32900 mg/kg/day (inactive)
carcinogen call (mouse, strain ASH-CS1, males, in feed, site: liver, lesion: adenoma, dosed 80 weeks, study length 80 weeks): negative (inactive)
carcinogen call (mouse, strain ASH-CS1, males, in feed, site: liver, lesion: nodular hyperplasia, dosed 80 weeks, study length 80 weeks): negative (inactive)
TD50 (mouse, strain ASH-CS1, males, in feed, site: lung, lesion: papillary adenoma, dosed 80 weeks, study length 80 weeks): 12300 mg/kg/day (inactive)
carcinogen call (mouse, strain B6C3F1, females, in feed, site: any site (literature study), lesion: several types, types named in the paper, dosed 103 weeks, study length 104 weeks): negative (inactive)
carcinogen call (mouse, strain B6C3F1, males, in feed, site: any site (literature study), lesion: several types, types named in the paper, dosed 103 weeks, study length 103 weeks): negative (inactive)
TD50 (rat, strain Fischer 344, females, in feed, site: any site (literature study), lesion: several types, types named in the paper, dosed 103 weeks, study length 104 weeks): 7180 mg/kg/day
TD50 (rat, strain Fischer 344, females, in feed, site: clitoral gland, lesion: sebaceous adenoma, dosed 103 weeks, study length 104 weeks): 16400 mg/kg/day
TD50 (rat, strain Fischer 344, females, in feed, site: uterus, lesion: endometrial stromal polyp, dosed 103 weeks, study length 104 weeks): 3270 mg/kg/day (inactive)
TD50 (rat, strain Fischer 344, males, in feed, site: any site (literature study), lesion: several types, types named in the paper, dosed 103 weeks, study length 104 weeks): 1860 mg/kg/day (inactive)
TD50 (rat, strain Fischer 344, males, in feed, site: liver, lesion: hepatocellular adenoma + hepatocellular carcinoma + neoplastic nodule, dosed 103 weeks, study length 104 weeks): 9850 mg/kg/day

O=[N+]([O-])c1ccc(Cl)c([N+](=O)[O-])c1
TD50 (mouse, strain CD-1 HaM/ICR, females, in feed, site: any site (literature study), lesion: several types, types named in the paper, dosed 77 weeks, study length 94 weeks): 124 mg/kg/day (inactive)
TD50 (mouse, strain CD-1 HaM/ICR, females, in feed, site: liver, lesion: several types, types named in the paper, dosed 77 weeks, study length 94 weeks): 1520 mg/kg/day (inactive)
TD50 (mouse, strain CD-1 HaM/ICR, females, in feed, site: lung, lesion: several types, types named in the paper, dosed 77 weeks, study length 94 weeks): 150 mg/kg/day (inactive)
TD50 (mouse, strain CD-1 HaM/ICR, males, in feed, site: any site (literature study), lesion: several types, types named in the paper, dosed 77 weeks, study length 94 weeks): 255 mg/kg/day (inactive)
TD50 (mouse, strain CD-1 HaM/ICR, males, in feed, site: liver, lesion: several types, types named in the paper, dosed 77 weeks, study length 94 weeks): 365 mg/kg/day (inactive)
TD50 (mouse, strain CD-1 HaM/ICR, males, in feed, site: lung, lesion: several types, types named in the paper, dosed 77 weeks, study length 94 weeks): 541 mg/kg/day (inactive)
TD50 (rat, strain Charles River CD (Sprague-Dawley), males, in feed, site: any site (literature study), lesion: several types, types named in the paper, dosed 77 weeks, study length 103 weeks): 12.3 mg/kg/day (inactive)
carcinogen call (rat, strain Charles River CD (Sprague-Dawley), males, in feed, site: liver, lesion: several types, types named in the paper, dosed 77 weeks, study length 103 weeks): negative (inactive)

COC(=O)C(C)(C)Oc1ccc(-c2ccc(Cl)cc2)cc1
TD50 (mouse, strain AP Alderly Park, females, in feed, site: liver, lesion: hepatocellular adenoma, dosed 78 weeks, study length 78 weeks): 2.27 mg/kg/day
TD50 (mouse, strain AP Alderly Park, females, in feed, site: liver, lesion: hepatocellular carcinoma, dosed 78 weeks, study length 78 weeks): 8.3 mg/kg/day
TD50 (mouse, strain AP Alderly Park, females, in feed, site: liver, lesion: several types, types named in the paper, dosed 52 weeks, study length 78 weeks): 25 mg/kg/day
TD50 (mouse, strain AP Alderly Park, females, several routes, site: liver, lesion: hepatocellular adenoma, dosed 78 weeks, study length 78 weeks): 48.5 mg/kg/day
TD50 (mouse, strain AP Alderly Park, females, several routes, site: liver, lesion: hepatocellular carcinoma, dosed 78 weeks, study length 78 weeks): 13.4 mg/kg/day
TD50 (mouse, strain AP Alderly Park, females, several routes, site: lung, lesion: adenoma, dosed 78 weeks, study length 78 weeks): 890 mg/kg/day
TD50 (mouse, strain AP Alderly Park, males, in feed, site: liver, lesion: hepatocellular adenoma, dosed 78 weeks, study length 78 weeks): 2.75 mg/kg/day
TD50 (mouse, strain AP Alderly Park, males, in feed, site: liver, lesion: hepatocellular carcinoma, dosed 78 weeks, study length 78 weeks): 0.858 mg/kg/day
TD50 (mouse, strain AP Alderly Park, males, in feed, site: liver, lesion: several types, types named in the paper, dosed 26 weeks, study length 78 weeks): 2.08 mg/kg/day
TD50 (mouse, strain AP Alderly Park, males, in feed, site: liver, lesion: several types, types named in the paper, dosed 52 weeks, study length 78 weeks): 5.94 mg/kg/day
TD50 (mouse, strain AP Alderly Park, males, several routes, site: liver, lesion: hepatocellular carcinoma, dosed 78 weeks, study length 78 weeks): 16.8 mg/kg/day
TD50 (rat, strain Alpk:APfSD, females, in feed, site: liver, lesion: hepatocellular adenoma, dosed 104 weeks, study length 104 weeks): 460 mg/kg/day
TD50 (rat, strain Alpk:APfSD, females, in feed, site: liver, lesion: hepatocellular carcinoma, dosed 104 weeks, study length 104 weeks): 5.88 mg/kg/day
TD50 (rat, strain Alpk:APfSD, males, in feed, site: liver, lesion: hepatocellular adenoma, dosed 104 weeks, study length 104 weeks): 17.4 mg/kg/day
TD50 (rat, strain Alpk:APfSD, males, in feed, site: liver, lesion: hepatocellular carcinoma, dosed 104 weeks, study length 104 weeks): 2.87 mg/kg/day
TD50 (rat, strain Alpk:APfSD, males, in feed, site: pancreas, exocrine, lesion: adenoma, dosed 52 weeks, study length 104 weeks): 1.44 mg/kg/day
TD50 (rat, strain Alpk:APfSD, males, in feed, site: pancreas, exocrine, lesion: adenoma, dosed 104 weeks, study length 104 weeks): 18.5 mg/kg/day
TD50 (rat, strain Alpk:APfSD, males, in feed, site: testis, lesion: Leydig-cell adenoma, dosed 104 weeks, study length 104 weeks): 2.93 mg/kg/day
carcinogen call (rat, strain Fischer 344, males, in feed, site: liver, lesion: hepatocellular carcinoma, dosed 75 weeks, study length 75 weeks): positive
